Measured values reported in ChEMBL document CHEMBL1135278, “Thiophene derivatives: a new series of potent norepinephrine and serotonin reuptake inhibitors” (Bioorg Med Chem Lett, 2002).

Assays:
[1] = biological target: Sodium-dependent dopamine transporter (Rattus norvegicus, UniProt P23977); test: Inhibition of [3H]DA reuptake at dopamine transporter in rat striatum; format: tissue-based
[2] = biological target: Sodium-dependent serotonin transporter (Rattus norvegicus, UniProt P31652); test: Inhibition of [3H]5-HT reuptake at serotonin transporter in rat mid brain
Sequence of Sodium-dependent serotonin transporter (P31652 whole entry): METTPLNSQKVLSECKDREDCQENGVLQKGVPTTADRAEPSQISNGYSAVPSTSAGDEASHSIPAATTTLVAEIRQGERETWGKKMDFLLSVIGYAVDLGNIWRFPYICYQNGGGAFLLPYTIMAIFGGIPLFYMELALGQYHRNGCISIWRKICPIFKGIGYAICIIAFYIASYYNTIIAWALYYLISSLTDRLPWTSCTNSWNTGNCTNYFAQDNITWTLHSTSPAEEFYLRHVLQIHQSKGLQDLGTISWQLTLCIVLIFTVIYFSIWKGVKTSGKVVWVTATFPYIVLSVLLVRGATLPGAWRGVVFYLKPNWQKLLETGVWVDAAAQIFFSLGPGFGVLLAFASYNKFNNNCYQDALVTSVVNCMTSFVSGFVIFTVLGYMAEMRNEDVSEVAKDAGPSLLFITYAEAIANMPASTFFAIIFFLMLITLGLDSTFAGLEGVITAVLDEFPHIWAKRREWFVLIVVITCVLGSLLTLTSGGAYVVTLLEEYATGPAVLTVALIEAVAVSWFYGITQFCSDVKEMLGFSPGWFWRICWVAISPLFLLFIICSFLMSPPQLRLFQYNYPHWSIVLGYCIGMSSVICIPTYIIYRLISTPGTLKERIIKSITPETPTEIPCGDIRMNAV

[3] = biological target: Norepinephrine transporter (Rattus norvegicus, UniProt Q9WTR4); test: Inhibition of [3H]-NE reuptake at Norepinephrine transporter in rat parietal/occipital cortex
Sequence of Norepinephrine transporter (Q9WTR4 whole entry): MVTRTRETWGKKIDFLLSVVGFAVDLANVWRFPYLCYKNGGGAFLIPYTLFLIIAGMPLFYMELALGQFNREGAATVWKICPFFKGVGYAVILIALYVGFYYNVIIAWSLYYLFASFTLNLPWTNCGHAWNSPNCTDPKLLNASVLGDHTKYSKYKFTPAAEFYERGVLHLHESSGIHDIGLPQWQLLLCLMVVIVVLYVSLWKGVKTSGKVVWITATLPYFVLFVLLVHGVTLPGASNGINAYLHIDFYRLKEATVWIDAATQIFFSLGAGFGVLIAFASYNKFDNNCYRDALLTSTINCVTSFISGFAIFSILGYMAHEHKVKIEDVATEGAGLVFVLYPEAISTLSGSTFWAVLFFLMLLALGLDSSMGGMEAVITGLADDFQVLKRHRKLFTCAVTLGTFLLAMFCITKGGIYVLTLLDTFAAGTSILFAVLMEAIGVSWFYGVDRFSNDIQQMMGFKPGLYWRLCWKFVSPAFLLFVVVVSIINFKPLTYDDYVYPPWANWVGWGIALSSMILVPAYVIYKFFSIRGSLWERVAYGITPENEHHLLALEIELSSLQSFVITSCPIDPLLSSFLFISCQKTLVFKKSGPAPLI

[4] = biological target: Monoamine transporters; Norepinephrine & serotonin (Rattus norvegicus) (UniProt P31652+Q9WTR4); test: Relative reuptake inhibition at norepinephrine and serotonin transporters; format: protein assay

Sequence of Sodium-dependent dopamine transporter (P23977 whole entry): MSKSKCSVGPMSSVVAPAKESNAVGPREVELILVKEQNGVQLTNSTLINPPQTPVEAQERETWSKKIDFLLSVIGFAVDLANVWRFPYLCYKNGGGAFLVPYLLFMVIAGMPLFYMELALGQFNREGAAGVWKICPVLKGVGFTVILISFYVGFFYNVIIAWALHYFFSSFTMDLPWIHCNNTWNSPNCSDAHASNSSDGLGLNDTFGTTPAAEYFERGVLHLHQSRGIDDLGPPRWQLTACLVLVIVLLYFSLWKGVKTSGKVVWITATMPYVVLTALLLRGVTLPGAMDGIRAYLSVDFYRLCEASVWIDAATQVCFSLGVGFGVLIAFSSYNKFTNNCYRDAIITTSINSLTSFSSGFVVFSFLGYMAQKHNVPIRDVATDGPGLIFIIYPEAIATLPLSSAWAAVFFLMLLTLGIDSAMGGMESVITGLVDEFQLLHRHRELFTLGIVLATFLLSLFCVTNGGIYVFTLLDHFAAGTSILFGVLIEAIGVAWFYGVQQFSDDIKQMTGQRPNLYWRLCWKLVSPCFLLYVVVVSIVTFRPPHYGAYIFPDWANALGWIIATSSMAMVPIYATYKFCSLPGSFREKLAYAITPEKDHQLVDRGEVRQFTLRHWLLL

For `COC(=O)C1C2CC3CCC1N3C/C2=C\c1cccs1` (stereo unspecified), the Ki [1] was 268 nM, the Ki [2] was 2050 nM and the Ki [3] was 26.4 nM.

In the case of `CC(C)(C)OC(=O)NCC1C2CC3CCC1N3C/C2=C\c1cccs1` (stereo unspecified), the Ki [1] is reported as 2300 nM, the Ki [2] is reported as 2360 nM and the Ki [3] is reported as 1700 nM.

For `CC(C)OC(=O)C1C2CC3CCC1N3C/C2=C\c1cccs1` (stereo unspecified), the Ki [1] was 428 nM, the Ki [2] was 1150 nM and the Ki [3] was 52.3 nM.

`CC(=O)NCC1C2CC3CCC1N3C/C2=C\c1cccs1` (stereo unspecified) showed a Ki [1] of 6140 nM, a Ki [2] of 13300 nM and a Ki [3] of 2430 nM.

With `COC(=O)C1C2CC3CCC1N3C/C2=C\c1ccc(I)s1` (stereo unspecified) the Ki [1] was 368 nM, the Ki [2] was 29 nM and the Ki [3] was 5 nM.

Compound `O=C(OCC1C2CC3CCC1N3C/C2=C\c1cccs1)c1ccccc1` (stereo unspecified) has a Ki [1] of 1750 nM, a Ki [2] of 1.53 nM and a Ki [3] of 894 nM.

In the case of `CC(C)(C)C(=O)OCC1C2CC3CCC1N3C/C2=C\c1cccs1` (stereo unspecified), the Ki [1] is reported as 1020 nM, the Ki [2] is reported as 168 nM and the Ki [3] is reported as 1180 nM.

Work on `CC(=O)OCC1C2CC3CCC1N3C/C2=C\c1cccs1` (stereo unspecified) yielded a Ki [1] of 610 nM, a Ki [2] of 1530 nM and a Ki [3] of 283 nM.

`OCC1C2CC3CCC1N3C/C2=C\c1cccs1` (stereo unspecified) gave a Ki [1] of ~3000 nM, a Ratio [4] of 0.3 and a Ki [2] of ~1000 nM. The Ki [3] was ~300 nM.

In the case of `O=C(OCC1C2CC3CCC1N3C/C2=C\c1ccc(I)cc1)c1ccccc1` (stereo unspecified), the Ki [2] is reported as 0.1 nM.

Compound `O=C(OCC1C2CC3CCC1N3C/C2=C\c1ccc(I)c(Cl)c1)c1ccccc1` (stereo unspecified) has a Ki [2] of 0.06 nM.

In the case of `COC(=O)C1C2CC3CCC1N3C/C2=C\c1ccc(C)s1` (stereo unspecified), the Ki [1] is reported as 403 nM, the Ki [2] is reported as 179 nM and the Ki [3] is reported as 4.9 nM.

In the case of `O=C(OCC1C2CC3CCC1N3C/C2=C\c1cccs1)c1ccc2ccccc2c1` (stereo unspecified), the Ki [1] is reported as 1680 nM, the Ki [2] is reported as 169 nM and the Ki [3] is reported as 1230 nM.
